Here are results for 30 compounds from patent publication US20240174625A1, “COMPOSITIONS AND METHODS FOR TREATING TAUOPATHIES” (The Regents of the University of California, priority 2021, published 2024).

The target in one data set is T1, NPEPPS (Homo sapiens, UniProt P55786).
T1 construct: endogenous in cells; host or cells: HEK293T
The data set can be described thus: Cell-based NPEPPS activity assay (Q-AMC fluorescence). The following applies: log10 transformed; EC50 = concentration that elevates 50% NPEPPS activity (150% of DMSO baseline); HEK293T cells. The method, then:
HEK293T cells (AATC) were maintained in a complete media containing DMEM (Gibco 11995-065) in the presence of 10% fetal bovine serum (FBS, Gibco 10082147), […] penicillin and 50 μg/ml streptomycin (Gibco 15140163) at 37° C. with 5% CO2. NPEPPS activity assay was conducted in a fresh-prepared minimal medium containing essential amino acids, vitamin, AlbuMax (Invitrogen 11021-029) in 1×HBS buffer. Black wall, clear bottom 384-well assay plates (Greiner EK-30092) were coated with poly-L-ornithine (0.1 mg/ml, Sigma P3655) overnight and washed once with 1×PBS. 15 μl minimal medium was then added to each well. 250 nL of compounds dissolved in OmniSolve methylsulfoxide (dimethyl sulfoxide, DMSO, Sigma MX1456P) were pinned to each well via Biomek FX^P Liquid Handling Automation (Beckman Coulter) from compound source plates, i.e., either pre-made compound libraries or JMM compounds (20-step, 2-fold dilution) dissolved in OmniSolve DMSO prepared via Biomek automation in 384-well clear V-bottom polypropylene microplates (ThermoScientific 50-823-639). Cells were harvested, resuspended in minimal medium, and seeded at 16,500 cells/15 μl/well in the 384-well assay plates. 24 hrs later, 30 μl 200 μM H-Gln-AMC hydrobromide salt (Q-AMC, Bachem #I-1175) in 1×HBS containing 0.1% DMSO was added into each well. The fluorescent signal at excitation/emission wavelengths of 360/460 nm was measured immediately upon Q-AMC addition and 3 hrs post-Q-AMC. The change in fluorescence is measured as a readout of NPEPPS activity.
To identify small molecules that either increase NPEPPS levels or NPEPPS activity, a cell-based NPEPPS activity assay amenable to high-throughput screening (HTS) by adapting a fluorescent peptidase activity assay^2 was developed. Since NPEPPS is one of the only aminopeptidases capable of cleaving glutamine-peptide bonds^3 and the major aminopeptidase responsible for degradation of poly-glutamine sequences in the brain^4, a fluorogenic compound, glutamine-7-amino-4-methylcoumarin (Q-AMC), was selected as a substrate to measure NPEPPS activity. The peptide bond of Q-AMC is hydrolyzed by NPEPPS to release glutamine and a fluorescent product, 7-amino-4-methylcoumarin (AMC), when Q-AMC is added directly to the cell culture media. This change in fluorescence is measured as a readout of aminopeptidase activity (FIG. 2A). Overexpression of NPEPPS in HEK293T cells results in a significant increase in fluorescence, whereas knock-down or chemical inhibition of NPEPPS decrease fluorescence change (FIG. 2B-D), validating that the changes in fluorescence observed in the Q-AMC-based assay directly correlate with changes in NPEPPS activity. A high-throughput (HTS) screen (201,845 compounds) was conducted at the UCLA MSSR core (FIG. 2E). Follow-up assays and chemical clustering identified three series of compounds with distinct chemical clusters (FIG. 2F).
(§1) To investigate the effects of JMM compounds that enhance NPEPPS activity and assess their cellular toxicity, 139 compounds in the JMM series (i.e., JMM001-JMM139) were tested in dose responses (20-step, 2-fold dilution) using NPEPPS activity and viability assays in HEK293T cells. 76 compounds harboring different modifications produce concentration-dependent enhancement on NPEPPS activity compared to DMSO control (FIG. 4). […] A therapeutic index (TI, a ratio of IC50 over EC50) is used to evaluate the relative safety profiles of the compounds. […] 16 JMM compounds show both improved potency and reduced toxicity (EC50<10 μM and TI>10, Table 1).

Another data set deals with HEK293T cells. In words: Cell viability assay (CellTiter Glo). It is filed as cell-based, human. The conditions noted are these: for IC50: Homo sapiens, HEK-293T, log10 transformed, IC50 = concentration that suppresses 50% cell viability, HEK293T cells; for Therapeutic index: ratio of IC50 (cell viability) over EC50 (NPEPPS activity). The method, then: HEK293T cells (AATC) were maintained in complete media and cell viability assay was conducted in a fresh-prepared minimal medium containing essential amino acids, vitamin, AlbuMax (Invitrogen 11021-029) in 1×HBS buffer. White 384-well assay plates (Greiner EK-30080) were coated with poly-L-ornithine (0.1 mg/ml) overnight and washed once with 1×PBS. 15 μl minimal medium was then added to each well. 250 nl of compounds dissolved in OmniSolve DMSO were pinned to each well via Biomek FX^P Liquid Handling Automation from compound source plates. Cells were harvested, resuspended in minimal medium, and seeded at 16,500 cells/15 μl/well in the 384-well assay plates. 24 hrs later, 25 μl/well CellTiter Glo reagent (Promega G7572) was added into each well, and luminescence (0.5 second integration time) was acquired following manufacture's protocol. Luminescence count normalized to DMSO control is used as a readout of cell viability.
as §1
For orientation: Cellular ATP, detected with luciferase, serves as a proxy for viable cell number.

The structures appear in SMILES notation.

T1 sequence (P55786 whole entry): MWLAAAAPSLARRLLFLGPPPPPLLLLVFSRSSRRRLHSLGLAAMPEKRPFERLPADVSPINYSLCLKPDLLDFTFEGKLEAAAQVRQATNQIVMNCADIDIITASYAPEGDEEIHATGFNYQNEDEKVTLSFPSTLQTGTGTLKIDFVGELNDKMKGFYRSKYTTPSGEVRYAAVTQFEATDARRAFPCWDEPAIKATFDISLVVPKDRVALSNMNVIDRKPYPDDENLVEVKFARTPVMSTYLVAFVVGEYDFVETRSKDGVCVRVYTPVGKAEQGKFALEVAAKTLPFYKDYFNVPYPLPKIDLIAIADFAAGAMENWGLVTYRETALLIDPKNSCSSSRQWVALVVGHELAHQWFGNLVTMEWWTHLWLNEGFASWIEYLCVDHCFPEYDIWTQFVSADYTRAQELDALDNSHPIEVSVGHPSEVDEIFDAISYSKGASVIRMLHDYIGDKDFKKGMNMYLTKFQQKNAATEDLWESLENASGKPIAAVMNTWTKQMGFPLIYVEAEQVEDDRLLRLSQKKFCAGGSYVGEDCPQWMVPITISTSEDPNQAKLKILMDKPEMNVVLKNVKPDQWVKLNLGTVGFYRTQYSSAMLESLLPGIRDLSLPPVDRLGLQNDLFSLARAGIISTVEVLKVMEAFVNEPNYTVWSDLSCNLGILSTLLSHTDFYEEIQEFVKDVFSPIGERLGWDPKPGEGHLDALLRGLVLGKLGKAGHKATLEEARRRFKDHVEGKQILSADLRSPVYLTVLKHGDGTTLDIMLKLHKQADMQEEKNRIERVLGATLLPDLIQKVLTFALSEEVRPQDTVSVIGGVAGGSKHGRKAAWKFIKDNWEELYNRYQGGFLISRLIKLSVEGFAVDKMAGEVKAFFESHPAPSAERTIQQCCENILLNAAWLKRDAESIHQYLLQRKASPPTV

In general, EC50 refers to the concentration giving half of the maximal effect. The low end stands for higher potency in that assay, the high end for lower potency in that assay. As a reminder, the IC50 is the point on the concentration scale where inhibition reaches its midpoint. Low readings indicate higher potency, high ones lower potency. In the case of `c1ccc(COc2ccc(CNc3nsc4cnccc34)cc2)cc1` [JMM077], at NPEPPS, the EC50 is 6.46 µM. For the same compound, in the data set on HEK293T cells, the IC50 was 61.7 µM and the Therapeutic index was 9.60.
On the same counts, the results for `CN(Cc1ccc(OCc2ccccc2)cc1)c1nsc2cnccc12` [JMM078] are 2.29 µM, 49 µM and 21.66.
On the same counts, the results for `CN(Cc1ccccc1C(F)(F)F)c1nsc2ccccc12` [JMM079] are 3.55 µM, 69.2 µM and 19.15.
On the same counts, the results for `CC(Nc1nsc2ccccc12)c1cccc2ccccc12` (stereo not drawn) [JMM080] are 9.33 µM, 105 µM and 11.09.
At NPEPPS, `FC(F)(F)Sc1ccc(CNc2nsc3ccccc23)cc1` [JMM081] gave an EC50 of 6.31 µM. For the same compound, in the data set on HEK293T cells, half-maximal inhibition (IC50) required 66.1 µM and the Therapeutic index is on record as 10.45.
Regarding `CN(Cc1ccc(SC(F)(F)F)cc1)c1nsc2ccccc12` [JMM082], the concentration for a half-maximal effect (EC50) at NPEPPS is 2.63 µM. Moreover, in the data set on HEK293T cells, the IC50 is 75.9 µM and the Therapeutic index turned out to be 29.32.
The corresponding values for `CN(Cc1ccc(C(F)(F)F)cc1)c1nsc2cnccc12` [JMM084] are 4.57 µM, 23.4 µM and 5.13.
The corresponding values for `CN(Cc1ccc(OCc2ccccc2)cc1)c1nsc2ccc(OCc3ccccc3)cc12` [JMM088] are 0.977 µM, 97.7 µM and 100.53.
On the same counts, the results for `Clc1ccc(CNc2nsc3ccc(OCc4ccccc4)cc23)cc1Cl` [JMM090] are 22.4 µM, 30.9 µM and 1.39.
Compound `CN(Cc1ccc(OCc2ccccc2)cc1)c1nsc2ccccc12` [JMM091] gave a 50% effective concentration (EC50) at NPEPPS of 145 µM. Also, in the data set on HEK293T cells, the IC50 was 174 µM and the Therapeutic index is given as 1.19.
At NPEPPS, `CCN(Cc1ccc(C(F)(F)F)cc1)c1nsc2ccccc12` [JMM092] showed an EC50 of 44.7 µM. In the data set on HEK293T cells, the IC50 is 126 µM and the Therapeutic index is listed as 2.84.
On the same counts, the results for `CN(Cc1ccc(Cl)c(Cl)c1)c1nsc2ccc(OCc3ccccc3)cc12` [JMM093] are 5.01 µM, 20.4 µM and 4.06.
The corresponding values for `COc1ccc2snc(NCc3ccc(OCc4ccccc4)cc3)c2c1` [JMM094] are 37.2 µM, 178 µM and 4.80.
On the same counts, the results for `COc1ccc2snc(N(C)Cc3ccc(OCc4ccccc4)cc3)c2c1` [JMM095] are 7.76 µM, 72.4 µM and 9.25.
In the case of `FC(F)(F)Sc1ccc(CNc2nsc3ccc(OCc4ccccc4)cc23)cc1` [JMM096], on NPEPPS, the EC50 is 10.2 µM. Also, in the data set on HEK293T cells, the 50% inhibitory concentration (IC50) was 63.1 µM and the Therapeutic index is recorded as 6.09.
On the same counts, the results for `COc1ccc(CNc2nsc3ccc(OC)cc23)cc1` [JMM097] are 398 µM, 229 µM and 0.57.
The corresponding values for `CN(Cc1ccc(SC(F)(F)F)cc1)c1nsc2ccc(OCc3ccccc3)cc12` [JMM098] are 18.6 µM, 107 µM and 5.68.
On the same counts, the results for `COc1ccc(CNc2nsc3ccc(OCc4ccccc4)cc23)cc1` [JMM099] are 46.8 µM, 34.7 µM and 0.74.
On NPEPPS, `COc1ccc(CN(C)c2nsc3ccc(OC)cc23)cc1` [JMM100] showed an EC50 of 79.4 µM. For the same compound, in the data set with HEK293T cells, the 50% inhibitory concentration (IC50) is 126 µM and the Therapeutic index was determined as 1.56.
The corresponding values for `C[C@H](Nc1nsc2ccccc12)c1cccc2ccccc12` [JMM101] are 70.8 µM, 407 µM and 5.74.
On the same counts, the results for `C[C@@H](Nc1nsc2ccccc12)c1cccc2ccccc12` [JMM102] are 162 µM, 417 µM and 2.54.
On the same counts, the results for `Clc1ccc(COc2ccc(CNc3nsc4ccc(OCc5ccccc5)cc34)cc2)cc1Cl` [JMM103] are 1.05 µM, 1620 µM and 1543.93.
As for `COc1ccc(COc2nsc3ccccc23)cc1OC` [JMM104], the midpoint of the response at NPEPPS, the EC50, lay at 105 µM. Moreover, in the data set with HEK293T cells, the IC50 is 63.1 µM and the Therapeutic index amounted to 0.60.
On the same counts, the results for `c1ccc(COc2ccc3snc(NCc4ccc(-c5ccccc5)cc4)c3c2)cc1` [JMM105, N-([1,1′-Biphenyl]-4-ylmethyl)-5-(benzyloxy)benzo[d]isothiazol-3-amine] are 26.3 µM, 53.7 µM and 2.02.
The corresponding values for `c1ccc(COc2ccc3snc(NCc4ccc(OCc5cccc6ccccc56)cc4)c3c2)cc1` [JMM106, 5-(Benzyloxy)-N-(4-(naphthalen-1-ylmethoxy)benzyl)benzo[d]isothiazol-3-amine] are 126 µM, 794 µM and 6.26.
`COc1ccc(CN(C)c2nsc3ccc(OCc4ccccc4)cc23)cc1` [JMM107, 5-(Benzyloxy)-N-(4-methoxybenzyl)-N-methylbenzo[d]isothiazol-3-amine] gave an EC50 on NPEPPS of 85.1 µM. Besides, in the data set with HEK293T cells, the IC50 was 87.1 µM and the Therapeutic index was 1.04.
At NPEPPS, `CN(Cc1ccc(OCc2ccc(Cl)cc2)cc1)c1nsc2ccc(OCc3ccccc3)cc12` [JMM108, 5-(Benzyloxy)-N-(4-((4-chlorobenzyl)oxy)benzyl)-N-methylbenzo[d]isothiazol-3-amine] showed an EC50 of 5.62 µM. Moreover, in the data set with HEK293T cells, it took 40.7 µM to reach half-maximal inhibition (IC50) and the Therapeutic index is 7.13.
`CN(Cc1ccc(OCc2ccc(Cl)c(Cl)c2)cc1)c1nsc2ccc(OCc3ccccc3)cc12` [JMM109, 5-(Benzyloxy)-N-(4-((3,4-dichlorobenzyl)oxy)benzyl)-N-methylbenzo[d]isothiazol-3-amine] showed an EC50 at NPEPPS of 4.07 µM. In the data set with HEK293T cells, the midpoint of inhibition, the IC50, lay at 60.3 µM and the Therapeutic index is recorded as 14.99.
`CN(Cc1cccc2ccccc12)c1nsc2ccccc12` [JMM110, N-Methyl-N-(naphthalen-1-ylmethyl)benzo[d]isothiazol-3-amine]: the response at NPEPPS was half-maximal at 42.7 µM (EC50). In the data set on HEK293T cells, the IC50 is 229 µM and the Therapeutic index came out at 5.40.
On the same counts, the results for `Fc1ccc(COc2ccc(CNc3nsc4ccc(OCc5ccccc5)cc34)cc2)c(F)c1` [JMM111, 5-(Benzyloxy)-N-(4-((2,4-difluorobenzyl)oxy)benzyl)benzo[d]isothiazol-3-amine] are 10.2 µM, 27.5 µM and 2.74.
